Laboratory results published in patent publication US20060088843A1 (priority 2004, published 2006).

Legend:
herpesvirus = conditions: cited from earlier work
[1] = pI and pH of protein solutions; type: physicochemical
Semliki Forest virus = conditions: cited from earlier work
[2] = Antiviral activity in similar assays (not specified)
mice = assay: Toxicity assay in mice
NAChR = type: binding

Substance	antiviral activity against herpes (herpesvirus)	pH of solution [1]	pI [1]	antiviral activity against Semliki Forest virus (Semliki Forest virus)	antiviral activity [2]	LD50 in mice (mice; injected subcutaneously or intra-peritoneally) [µg]	time to death (mice; injection of 1.5 mcg, 25 g mouse) [min]	binding to native receptor (NAChR)
alpha-cobratoxin [native alpha-cobratoxin]	does not have any antiviral activity	10.4	9.6	does not have any antiviral activity	does not demonstrate antiviral activity	1.2	≤ 25	
autoclaved alpha-cobratoxin	no antiviral activity			no antiviral activity				still capable of binding to its native receptor
